Laboratory results reported in patent US11840686B2, “Modulation of prekallikrein (PKK) expression” (Ionis Pharmaceuticals, Inc., priority 2013, dated 2023).
Strand notation (5' to 3'): a small letter for the sugar, then the base; units joined by * are phosphorothioate-linked, units joined directly phosphodiester-linked; [ ] holds rarer units or linkages, { } end groups; capitals alone tell only the bases. e = 2'-O-(2-methoxyethyl) (MOE); [5mC] = 5-methylcytosine; d = 2'-deoxy (DNA)

What was measured:
human PKK mRNA [1] = assay: Antisense inhibition of human PKK mRNA in HepaRG cells, 5,000 nM (Example 2); format: cell-based
How it was run: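 HepaRG cells, 20,000 per well, were electroporated with 5,000 nM MOE gapmer (phosphorothioate, 5-methylcytosine) and incubated about 24 hours. PKK mRNA was quantified by qRT-PCR with primer probe set RTS3454, normalized to RIBOGREEN total RNA, and expressed as percent inhibition versus untreated controls.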

human PKK mRNA [2] = assay: Dose-dependent antisense inhibition of human PKK in HepaRG cells, 0.19-5.00 uM (Example 5); format: cell-based; conditions: HepaRG cells; for percent inhibition of PKK at 0.19 μM / percent inhibition of PKK at 0.56 μM / percent inhibition of PKK at 1.67 μM / percent inhibition of PKK at 5.00 μM: electroporation, approximately 16 hours; for percent inhibition of PKK mRNA, 0.19 μM: 0.19 μM antisense oligonucleotide; for percent inhibition of PKK mRNA, 0.56 μM: 0.56 μM antisense oligonucleotide; for percent inhibition of PKK mRNA, 1.67 μM: 1.67 μM antisense oligonucleotide; for percent inhibition of PKK mRNA, 5.00 μM: 5.00 μM antisense oligonucleotide
How it was run: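 HepaRG cells (20,000/well) were electroporated with antisense oligonucleotide at 0.19, 0.56, 1.67 and 5.00 μM and treated for about 16 hours. PKK mRNA was quantified by qRT-PCR with primer probe set RTS3454, normalised to RIBOGREEN total RNA, and IC50 was derived per oligonucleotide.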

[3] = 4 point dose response, Table 40

547584 (eG*eT*eA*eT*e[5mC]*dA*d[5mC]*dT*dG*dT*d[5mC]*d[5mC]*dT*dA*dT*eA*eT*e[5mC]*eA*e[5mC]; antisense) [compound 547584]
% inhibition (human PKK mRNA [1]; human PKK mRNA in HepaRG cells, 5-10-5 gapmers, Table 14): 85%
percent inhibition of PKK at 0.19 μM (human PKK mRNA [2]; Table 38): 26%
percent inhibition of PKK at 0.56 μM (human PKK mRNA [2]; Table 38): 34%
percent inhibition of PKK at 1.67 μM (human PKK mRNA [2]; Table 38): 76%
percent inhibition of PKK at 5.00 μM (human PKK mRNA [2]; Table 38): 86%
IC50 (human PKK mRNA [2]; 4 point dose response, Table 38): 700 nM
percent inhibition of PKK mRNA, 0.19 μM (human PKK mRNA [2]): 0%
percent inhibition of PKK mRNA, 0.56 μM (human PKK mRNA [2]): 21%
percent inhibition of PKK mRNA, 1.67 μM (human PKK mRNA [2]): 64%
percent inhibition of PKK mRNA, 5.00 μM (human PKK mRNA [2]): 92%
IC50 (human PKK mRNA [2]; 0.19-5.00 μM): 1300 nM

547483 (antisense eT*e[5mC]*e[5mC]*e[5mC]*e[5mC]*d[5mC]*dT*dT*d[5mC]*dT*dT*dT*dA*dT*dA*eG*e[5mC]*e[5mC]*eA*eG) [compound 547483]
% inhibition (human PKK mRNA [1]; Table 9 experiment, HepaRG cells, 20,000 cells per well, electroporation with 5,000 nM antisense oligonucleotide, approx. 24 hours, PKK mRNA by RT-PCR (RTS3454), relative to untreated control cells): 71%
% inhibition (human PKK mRNA [1]; Table 10 experiment, HepaRG cells, 20,000 cells per well, electroporation with 5,000 nM antisense oligonucleotide, approx. 24 hours, PKK mRNA by RT-PCR (RTS3454), relative to untreated control cells): 77%
percent inhibition of PKK at 0.19 μM (human PKK mRNA [2]; Table 37): 0%
percent inhibition of PKK at 0.56 μM (human PKK mRNA [2]; Table 37): 9%
percent inhibition of PKK at 1.67 μM (human PKK mRNA [2]; Table 37): 49%
percent inhibition of PKK at 5.00 μM (human PKK mRNA [2]; Table 37): 71%
IC50 (human PKK mRNA [2]; 4 point dose response, Table 37): 2100 nM

546889 (eG*eT*e[5mC]*e[5mC]*eT*dA*dT*dG*dT*d[5mC]*dA*d[5mC]*dT*dG*dT*eA*e[5mC]*e[5mC]*eT*eA; antisense) [compound 546889]
% inhibition (human PKK mRNA [1]; human PKK mRNA, HepaRG cells, 5-10-5 motif oligonucleotides targeting SEQ ID NO: 1 and 10): 93%
percent inhibition of PKK at 0.19 μM (human PKK mRNA [2]; Table 35): 23%
percent inhibition of PKK at 0.56 μM (human PKK mRNA [2]; Table 35): 54%
percent inhibition of PKK at 1.67 μM (human PKK mRNA [2]; Table 35): 78%
percent inhibition of PKK at 5.00 μM (human PKK mRNA [2]; Table 35): 91%
IC50 (human PKK mRNA [2]; 4 point dose response, Table 35): 600 nM
percent inhibition of PKK mRNA, 0.19 μM (human PKK mRNA [2]): 25%
percent inhibition of PKK mRNA, 0.56 μM (human PKK mRNA [2]): 9%
percent inhibition of PKK mRNA, 1.67 μM (human PKK mRNA [2]): 73%
percent inhibition of PKK mRNA, 5.00 μM (human PKK mRNA [2]): 92%
IC50 (human PKK mRNA [2]; 0.19-5.00 μM): 1400 nM

547520 (antisense eT*e[5mC]*eA*eG*e[5mC]*d[5mC]*dA*dG*dA*d[5mC]*dA*dT*dT*dG*dT*e[5mC]*e[5mC]*eT*e[5mC]*eA) [compound 547520]
% inhibition (human PKK mRNA [1]; HepaRG cells, electroporation, 5,000 nM antisense oligonucleotide, approx. 24 hours, primer probe set RTS3454, relative to untreated control cells, Table 11): 76%
percent inhibition of PKK at 0.19 μM (human PKK mRNA [2]; Table 40): 0%
percent inhibition of PKK at 0.56 μM (human PKK mRNA [2]; Table 40): 25%
percent inhibition of PKK at 1.67 μM (human PKK mRNA [2]; Table 40): 66%
percent inhibition of PKK at 5.00 μM (human PKK mRNA [2]; Table 40): 64%
IC50 (human PKK mRNA [2]; [3]): 1100 nM

547364 (eG*eA*eA*e[5mC]*e[5mC]*d[5mC]*dT*dG*dG*d[5mC]*dA*dA*d[5mC]*dA*dT*e[5mC]*e[5mC]*eA*e[5mC]*eA; antisense) [compound 547364]
% inhibition (human PKK mRNA [1]; Table 7, HepaRG cells, electroporation with 5,000 nM antisense oligonucleotide, approx. 24 hours, PKK mRNA by RT-PCR (RTS3454), relative to untreated control cells): 92%
percent inhibition of PKK at 0.19 μM (human PKK mRNA [2]; Table 36): 38%
percent inhibition of PKK at 0.56 μM (human PKK mRNA [2]; Table 36): 47%
percent inhibition of PKK at 1.67 μM (human PKK mRNA [2]; Table 36): 54%
percent inhibition of PKK at 5.00 μM (human PKK mRNA [2]; Table 36): 89%
IC50 (human PKK mRNA [2]; 4 point dose response, Table 36): 600 nM

546291 (antisense e[5mC]*eA*eG*eG*eG*d[5mC]*d[5mC]*dA*d[5mC]*dT*d[5mC]*dT*d[5mC]*d[5mC]*d[5mC]*e[5mC]*eA*eA*eG*eA) [compound 546291]
% inhibition (human PKK mRNA [1]; Table 8, HepaRG cells, electroporation with 5,000 nM antisense oligonucleotide, approx. 24 hours, PKK mRNA by RT-PCR (RTS3454), relative to untreated control cells): 81%
percent inhibition of PKK at 0.19 μM (human PKK mRNA [2]; Table 40): 22%
percent inhibition of PKK at 0.56 μM (human PKK mRNA [2]; Table 40): 32%
percent inhibition of PKK at 1.67 μM (human PKK mRNA [2]; Table 40): 34%
percent inhibition of PKK at 5.00 μM (human PKK mRNA [2]; Table 40): 72%
IC50 (human PKK mRNA [2]; [3]): 2000 nM

548757 (antisense eA*eG*eT*eA*dT*d[5mC]*dA*d[5mC]*dT*dG*dT*dA*d[5mC]*eT*eA*eG*eT) [compound 548757]
% inhibition (human PKK mRNA [1]; human PKK mRNA, HepaRG cells, 5,000 nM antisense oligonucleotide, Table 18): 87%
percent inhibition of PKK at 0.19 μM (human PKK mRNA [2]; Table 39): 18%
percent inhibition of PKK at 0.56 μM (human PKK mRNA [2]; Table 39): 49%
percent inhibition of PKK at 1.67 μM (human PKK mRNA [2]; Table 39): 82%
percent inhibition of PKK at 5.00 μM (human PKK mRNA [2]; Table 39): 93%
IC50 (human PKK mRNA [2]; 4 point dose response, Table 39): 600 nM
